Data taken from ChEMBL document CHEMBL3400093, “Synthesis and biological evaluation of novel tyrosyl-DNA phosphodiesterase 1 inhibitors with a benzopentathiepine moiety” (Bioorg Med Chem, 2015).
Calls of active or inactive are those of the source. The calls are words filed in the database; no cut-off is given here.

Columns and labels:
[1] = molecular target: Tyrosyl-DNA phosphodiesterase 1 (Homo sapiens, UniProt Q9NUW8); experiment: Inhibition of recombinant TDP1 (unknown origin) assessed as increase in fluorescence
MCF7 [2] = experiment: Induction of apoptosis in human MCF7 cells assessed as apoptotic DNA fragments at 100 uM after 72 hrs by DNA gel electrophoresis assay; type: functional, cell-based
MCF7 [3] = experiment: Induction of apoptosis in human MCF7 cells assessed as P1 population at 100 uM after 24 hrs by annexin V-FITC/propidium iodide staining-based FACS flow cytometric analysis relative to control; type: functional
MCF7 [4] = experiment: Induction of apoptosis in human MCF7 cells assessed as P1 population at 200 uM after 24 hrs by annexin V-FITC/propidium iodide staining-based FACS flow cytometric analysis relative to control; type: functional
HepG2 [5] = experiment: Cytotoxicity against human HepG2 cells assessed as reduction In cell number after 72 hrs by MTT assay; type: functional; details: HepG2, 72 h
MCF7 [6] = experiment: Induction of apoptosis in human MCF7 cells assessed as P1 population at 200 uM after 48 hrs by annexin V-FITC/propidium iodide staining-based FACS flow cytometric analysis relative to control; type: functional
MCF7 [7] = experiment: Cytotoxicity against human MCF7 cells assessed as reduction In cell number after 72 hrs by MTT assay; type: functional; details: MCF7, 72 h
MCF7 [8] = experiment: Cytotoxicity against human MCF7 cells assessed as condensation of nuclei, shrinkage of the cytoplasm, convolution of outlines, budding and formation of apoptotic bodies at 40 uM after 24 hrs by light microscopy; type: functional, cell-based
MCF7 [9] = experiment: Induction of apoptosis in human MCF7 cells assessed as P2 population at 100 uM after 48 hrs by annexin V-FITC/propidium iodide staining-based FACS flow cytometric analysis (reference value: 13.5%); type: functional
MCF7 [10] = experiment: Induction of apoptosis in human MCF7 cells assessed as P2 population at 200 uM after 48 hrs by annexin V-FITC/propidium iodide staining-based FACS flow cytometric analysis (reference value: 13.5%); type: functional
MCF7 [11] = experiment: Cytotoxicity against human MCF7 cells assessed as condensation of nuclei, shrinkage of the cytoplasm, convolution of outlines, budding and formation of apoptotic bodies at 200 uM after 24 hrs by light microscopy; type: functional, cell-based
MCF7 [12] = experiment: Induction of apoptosis in human MCF7 cells assessed as P1 population at 100 uM after 48 hrs by annexin V-FITC/propidium iodide staining-based FACS flow cytometric analysis relative to control; type: functional
HepG2 [13] = experiment: Cytotoxicity against human HepG2 cells assessed as condensation of nuclei, shrinkage of the cytoplasm, convolution of outlines, budding and formation of apoptotic bodies at 200 uM after 24 hrs by light microscopy; type: functional, cell-based
HepG2 [14] = experiment: Cytotoxicity against human HepG2 cells assessed as condensation of nuclei, shrinkage of the cytoplasm, convolution of outlines, budding and formation of apoptotic bodies at 40 uM after 24 hrs by light microscopy; type: functional, cell-based

Tyrosyl-DNA phosphodiesterase 1, sequence (Q9NUW8 whole entry, the tested form may be a part): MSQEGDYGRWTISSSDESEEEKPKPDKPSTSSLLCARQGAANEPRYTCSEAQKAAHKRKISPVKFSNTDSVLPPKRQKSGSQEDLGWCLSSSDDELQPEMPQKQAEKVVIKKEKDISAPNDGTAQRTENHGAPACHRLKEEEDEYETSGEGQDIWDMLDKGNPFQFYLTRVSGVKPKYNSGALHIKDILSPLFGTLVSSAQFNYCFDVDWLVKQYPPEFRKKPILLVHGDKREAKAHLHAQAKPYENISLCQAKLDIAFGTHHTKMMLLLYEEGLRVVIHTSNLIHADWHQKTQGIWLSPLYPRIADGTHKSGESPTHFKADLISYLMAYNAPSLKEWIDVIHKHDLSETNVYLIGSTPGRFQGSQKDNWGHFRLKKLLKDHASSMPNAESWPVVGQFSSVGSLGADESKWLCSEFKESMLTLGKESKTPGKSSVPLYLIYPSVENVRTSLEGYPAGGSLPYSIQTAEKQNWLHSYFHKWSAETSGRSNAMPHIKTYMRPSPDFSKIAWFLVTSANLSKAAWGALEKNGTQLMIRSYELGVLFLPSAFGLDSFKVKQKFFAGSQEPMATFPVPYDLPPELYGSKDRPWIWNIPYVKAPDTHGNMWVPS

Structure (SMILES)	IC50 [1] [µM]	Activity (MCF7 [2])	Activity (MCF7 [4]) [%]	Activity (MCF7 [6]) [%]	CC50 (MCF7 [7]) [µM]	other results
Nc1cc(C(F)(F)F)cc2c1SSSSS2	> 10	Active	0	0.8	14	Activity (MCF7 [3]): 0%; CC50 (HepG2 [5]): 26.6 µM
O=C(CN1CCCC1)Nc1ccccc1	> 10					
O=C(Nc1cc(C(F)(F)F)cc2c1SSSSS2)C(F)(F)F	> 10	Active	8.3	20.1	21	inhibition (MCF7 [8]): Active; Activity (MCF7 [9]): 23%; Activity (MCF7 [10]): 33.6%; inhibition (MCF7 [11]): Active; Activity (MCF7 [12]): 9.5%; Activity (MCF7 [3]): 1.2%; inhibition (HepG2 [13]): Active; inhibition (HepG2 [14]): Active
O=C(CN1CCCCC1)Nc1ccccc1	> 10					
O=C(CCN1CCCCC1)Nc1cc(C(F)(F)F)cc2c1SSSSS2	3.66					
O=C(CCN1CCCC1)Nc1cc(C(F)(F)F)cc2c1SSSSS2	6.03					
CCCCN(CCCC)CC(=O)Nc1cc(C(F)(F)F)cc2c1SSSSS2	0.22	Active	1.51	10.5	28.1	CC50 (HepG2 [5]): > 100 µM

The next lines start with results.

IC50 [1] [µM]	Structure (SMILES)	Activity (MCF7 [2])	Activity (MCF7 [4]) [%]	Activity (MCF7 [6]) [%]	CC50 (MCF7 [7]) [µM]	other results
1.28	O=C(CN1CCCCC1)Nc1cc(C(F)(F)F)cc2c1SSSSS2	Active	0	0.9	19.3	Activity (MCF7 [3]): 0%; CC50 (HepG2 [5]): 24.4 µM
1.62	O=C(CN1CCOCC1)Nc1cc(C(F)(F)F)cc2c1SSSSS2					
1.3	O=C(CCN1CCOCC1)Nc1cc(C(F)(F)F)cc2c1SSSSS2					
3.7	O=C(CN1CCCC1)Nc1cc(C(F)(F)F)cc2c1SSSSS2					
